The record followed here is US12065427B2, “Heterocyclic compounds capable of activating STING” (BOEHRINGER INGELHEIM INTERNATIONAL GMBH, priority 2021, dated 2024).

The target in data set [1] is T1, STING R293Q-variant (Homo sapiens, UniProt Q86WV6, H232R/R293Q).
T1 construct: expressed in transfected cells; host or cells: THP1-Blue ISG hSTING KO clone, retroviral MSCV-ires-GFP-Blasti
The data set can be described thus: IRF-inducible SEAP reporter assay in THP1-Blue ISG cells, STING R293Q-variant. It counts as cell-based. To be noted: 24 hours incubation. From the text: (§1) In Vitro Cytokine Induction Measured Via Activation of an Interferon Regulatory Factor Inducible Reporter Gene
(§2) Activation of the STING protein expressed in cell lines results in an increase of interferon production. By the stable integration of an interferon regulatory factor (IRF)-inducible SEAP gene (secreted embryonic alkaline phosphatase) reporter construct the functional interferon signaling pathway can be monitored. Using Invivogen's THP1-Blue™ ISG colorimetric enzyme assay and a suitable optical density (OD) reader the activity of SEAP can be detected and quantified. This technique could be used to characterize pharmacological modification of the STING pathway.
(§3) Several single nucleotide polymorphisms have been identified in the human STING gene. To determine the activity of the above described compounds, THP1-Blue™ ISG reporter cell lines expressing the different human STING variants have been generated. To do so, the endogenous human STING was first deleted using the CRISPR/CAS9 system: THP1-Blue ISG cells were electroporated with ALL-IN-ONE CRISPR plasmids targeting the STING gene (purchased from Sigma encoding the gRNA and GFP as a reporter gene for successful transduction). GFP positive cells then were sorted 24 h post transfection and expanded. Cells were then dispersed in semisolid methocel medium to allow single cell clone isolations. Clones were then screened for cGAMP responsiveness using the Quanti-Blue™ reporter assay. Non-responsive clones were subsequently analysed for STING loss by western blotting and sequencing of the STING locus.
(§4) For the overexpression of the human STING variants, a confirmed THP1-Blue™ ISG hSTING KO clone was transduced with individual retroviral plasmids (MSCV-ires-GFP-Blasti) encoding the allelic variants of hSTING (WT (H232R), HAQ, R232H, AQ and R293Q). Transduced cells were sorted for different levels of GFP fluorescence and STING allele expression was analysed by western blot.
(§5) Measurements of SEAP activity were performed in THP1-Blue™ ISG cells stably expressing the different human STING isoforms and the IRF-inducible SEAP reporter construct. Cells were cultivated in RPMI1640 medium with 10% fetal calf serum, 50 μg/ml Penicillin-Streptomycin, 100 μg/ml Zeocin, and 100 μg/ml Normocin in a 37°, 95% humidity and 5% CO2 incubator.
(§6) In preparation for the assay, the cells were distributed into the assay plates with a density of 10000 cells/15 μL per well. Compounds were prepared by an 8 point serial dilution in 50% aqueous DMSO and a final dilution step into medium to ensure a final DMSO concentration of 0.5% in the assay. 5 μL of diluted compounds were added to the plates, followed by a 24 hours incubation at 37° C.
(§7) At the day of the assay, 75 μl per well of Quanti-Blue™ reagent was added to all wells of the plate and the plate was incubated another 30 minutes at 37° C. The OD at 620 nm was measured on the EnVision reader (PerkinElmer).
(§8) EC50 values and Hill slopes were derived from 8-point four parametric non-linear curve fittings with the Megalab software (Boehringer Ingelheim) using the OD at 620 nm.
(§9) Data of EC50 values can be found in tables 2a-2e.
Data of EC50 values on STING R293Q-variant can be found in table 2d: […]
(In general: In a reporter assay the amount or activity of a reporter protein is the signal.)

The nature of data set [2]: in vitro. To be noted: human, Caco-2, pH 7.4.
Description: Cellular Permeability Measurements
Caco-2 cells were obtained from Leibniz Institute DSMZ-German Collection of Microorganisms and Cell Cultures (Braunschweig, Germany) and cultured in DMEM (Dulbecco's modified Eagle medium) containing (in final concentrations) 10% FCS (fetal calf serum), 1% NEAA (non-essential amino acids), 2 mM Glutamin, 100 U/mL Penicillin and 100 μg/mL Streptomycin. Caco-2 cells were seeded either onto 24-well Transwell inserts (Corning, #3379) for bidirectional permeability assays at a density of 160,000 cells/cm^2 and cultured for 3 weeks, with media change on every second day.
For bidirectional permeability assays 10 mM DMSO stock solutions were diluted in transport buffer (final concentrations: 128.13 mM NaCl, 5.36 mM KCl, 1 mM MgSO4, 1.8 mM CaCl2, 4.17 mM NaHCO3, 1.19 mM Na2HPO4, 0.41 mM NaH2PO4, 15 mM 2-[4-(2-hydroxyethyl)piperazin-1-yl]ethanesulfonic acid (HEPES), 20 mM glucose, pH 7.4) containing 0.25% bovine serum albumin to a final concentration of 10 μM of the test compounds and added to the apical or basal compartment. Cells were incubated with the compounds for up to 2 h. Samples from the opposite compartment were taken at different timepoints.
Compound concentrations in the compartments were quantified using a RapidFire-based high-throughput HPLC/MS/MS system (high performance liquid chromatography/mass spectrometry; Bio-Cius) that was customized to a fully automated and flexible platform, termed RIAS. In this modified setup, the sample was aspirated by a vacuum pump into a 10 μL sample loop for 250 ms and flushed onto a C4 cartridge (3.8 μL bed volume; Bio-Cius) with the aqueous mobile phase (99.9% water, 0.09% formic acid, and 0.01% TFA; flow rate 1.5 mL/min). Prior to bioanalysis samples were spiked with internal standard solution and diluted with acetonitrile (ACN) for protein precipitation. Measurement was operated in multiplereaction monitoring (MRM) mode. Quantification was performed using external calibration. A solid-phase extraction step retained the analyte for 3000 ms while interfering matrix (e.g., buffer components) was removed. With a simple step gradient, the analyte was back-eluted from the cartridge for 3,000 ms with the organic mobile phase (99.9% acetonitrile/methanol [1:1, v:v], 0.09% formic acid, and 0.01% TFA) and flushed into the mass spectrometer at a flow rate of 1.25 mL/min. Afterwards, the cartridge was re-equilibrated with the aqueous mobile phase for 500 ms (flow rate 1.5 mL/min).
Apparent permeability coefficients in the apical to basal direction (Papp,AB) and in the basal to apical direction (Papp,BA) and efflux ratios were calculated as follows: Papp,AB=QAB/(C0·s·t) Papp,BA=QBA/(C0·s·t) Efflux ratio=Papp,BA/Papp,AB
where Q is the amount of compound recovered in the receiver compartment after the incubation time t, C0 the initial compound concentration given to the donor compartment, and s the surface area of the Transwell inserts. […] In addition, transepithelial electrical resistance (TEER) values are measured for each plate before the permeability assay, and total recovery in donor and receiver compartments was determined for each compound.
In data set [3] the target is T2, STING HAQ-variant (Homo sapiens, UniProt Q86WV6, G230A/H232R/R293Q/R71H).
T2 construct: parental THP1-Blue™ ISG cell lines (which express endogenously HAQ); host or cells: THP1-Blue ISG (parental, endogenous HAQ) or STING-KO clone re-transduced with HAQ (MSCV-ires-GFP-Blasti)
The data set can be described thus: IRF-inducible SEAP reporter assay in THP1-Blue ISG cells, STING HAQ-variant. It is filed as cell-based. To be noted: STING HAQ-variant (parental or re-introduced), 24 hours incubation. Put shortly:
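THP1-Blue ISG cells expressing STING HAQ, either endogenously (parental) or re-introduced after CRISPR knockout, were seeded at 10000 cells/well. They received 8-point compound dilutions (0.5% DMSO final) for 24 hours at 37° C. IRF-driven SEAP was read with Quanti-Blue at OD 620 nm after 30 minutes, and EC50 came from four-parameter fits.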

For data set [4], the target named is T3, STING H232R-variant (Homo sapiens, UniProt Q86WV6, H232R).
T3 construct: expressed in transfected cells; host or cells: THP1-Blue ISG hSTING KO clone, retroviral MSCV-ires-GFP-Blasti
The data set can be described thus: IRF-inducible SEAP reporter assay in THP1-Blue ISG cells, STING H232R-variant. It counts as cell-based. To be noted: STING H232R-variant (WT), 24 hours incubation.
Description: as §1, §2, §3, §4, §5, §6, §7, §8, §9
Data of EC50 values on STING H232R-variant can be found in table 2b: […]

In data set [5] the target is T4, STING R232H-variant (Homo sapiens, UniProt Q86WV6).
T4 construct: expressed in transfected cells; host or cells: THP1-Blue ISG hSTING KO clone, retroviral MSCV-ires-GFP-Blasti
The data set can be described thus: IRF-inducible SEAP reporter assay in THP1-Blue ISG cells, STING R232H-variant. It is filed as cell-based. To be noted: 24 hours incubation.
Description: as §1, §2, §3, §4, §5, §6, §7, §8, §9
Data of EC50 values on STING R232H-variant can be found in table 2c: […]

Data set [6] concerns Human STING (hSTING, residues 155-341). The data set can be described thus: Interaction with hSTING as determined by Differential Scanning Fluorimetry (DSF). Conditions: 100 μM test compounds, 5 μM target protein. It is filed as binding. Put shortly:
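Thermal shift of hSTING (residues 155-341, 5 μM) with test compounds at 100 μM in 20 mM Tris, 150 mM NaCl, pH 7.5, using 5× SYPRO Orange. Ramped 25 to 95 °C at 0.5 °C per cycle (15 s/cycle) by real-time PCR fluorescence. Tm from duplicate melting curves, averaged.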

For data set [7], the target named is T5, STING AQ-variant (Homo sapiens, UniProt Q86WV6, G230A/H232R/R293Q).
T5 construct: expressed in transfected cells; host or cells: THP1-Blue ISG hSTING KO clone, retroviral MSCV-ires-GFP-Blasti
The data set can be described thus: IRF-inducible SEAP reporter assay in THP1-Blue ISG cells, STING AQ-variant. It is filed as cell-based. Conditions: 24 hours incubation.
Description: as §1, §2, §3, §4, §5, §6, §7, §8, §9
Data of EC50 values on STING AQ-variant can be found in table 2e: […]

T2 sequence (Q86WV6 whole entry R71H/G230A/H232R/R293Q): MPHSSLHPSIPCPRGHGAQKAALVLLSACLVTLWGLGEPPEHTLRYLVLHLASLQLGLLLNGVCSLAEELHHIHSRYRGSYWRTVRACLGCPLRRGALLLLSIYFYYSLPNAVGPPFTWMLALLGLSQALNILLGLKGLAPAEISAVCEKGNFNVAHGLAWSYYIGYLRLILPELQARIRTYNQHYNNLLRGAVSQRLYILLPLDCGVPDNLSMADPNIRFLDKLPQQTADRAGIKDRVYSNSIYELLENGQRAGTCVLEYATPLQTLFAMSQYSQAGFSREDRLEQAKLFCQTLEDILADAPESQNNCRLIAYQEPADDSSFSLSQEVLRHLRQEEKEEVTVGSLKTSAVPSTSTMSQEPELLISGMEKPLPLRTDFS
T1 sequence (Q86WV6 whole entry H232R/R293Q): as the sequence (Q86WV6 whole entry R71H/G230A/H232R/R293Q) above, with H71R, A230G counted along it
T3 sequence (Q86WV6 whole entry H232R): as the sequence (Q86WV6 whole entry R71H/G230A/H232R/R293Q) above, with H71R, A230G, Q293R counted along it
T5 sequence (Q86WV6 whole entry G230A/H232R/R293Q): as the sequence (Q86WV6 whole entry R71H/G230A/H232R/R293Q) above, with H71R counted along it
T4 sequence (Q86WV6 whole entry, stated change not applied): as the sequence (Q86WV6 whole entry R71H/G230A/H232R/R293Q) above, with H71R, A230G, R232H, Q293R counted along it

On to `Cc1cc2c(-c3nn(-c4ccc(N5CC6C(C5)C6C(=O)O)nc4)c4c(C)cccc34)cccn2n1` (stereo not drawn) [compound 68, 3-[5-(7-methyl-3-{2-methylpyrazolo[1,5-a]pyr-idin-4-yl}-1H-indazol-1-yl)pyridin-2-yl]-3-azabicy-clo[3.1.0]hexane-6-car-boxylic acid], for which the EC50 came out at 0.8 µM in data set [1]; 1.6 µM in data set [3]; 0.7 µM in data set [4]; 0.7 µM in data set [5]; 0.8 µM in data set [7]. The molecule further returned a Papp A→B at 10 μM in data set [2] of 160 nm/s. In addition, in data set [2], the efflux ratio at 10 μM turned out to be 1. Also, in data set [6], the “thermal shift (ΔTm)” value was determined as 24 K.

On to `Cc1cccc2c(-c3cccc4nn(C)cc34)nn(-c3ccc(N4CC5(CCN(C=O)C5)C4)nc3)c12` [compound 53, 2-(5-{2′,7-dimethyl-1H,2′H-[3,4′-biinda-zol]-1-yl}pyridin-2-yl)-2,6-dia-zaspiro[3.4]octane-6-carbaldehyde], for which the EC50 in data set [1] is 1.6 µM; in data set [3], 1.7 µM; in data set [4], 0.7 µM; in data set [5], 0.7 µM; in data set [7], 1.9 µM. The Papp A→B at 10 μM in data set [2] amounted to 500 nm/s. For the same molecule, the efflux ratio at 10 μM in data set [2] was found to be 0.2. Also, the “thermal shift (ΔTm)” value in data set [6] turned out to be 20 K.

`Cc1cccc2c(-c3cccc4nn(C)cc34)nn(-c3ccc(N4CCC5(CC4)CNC5=O)nc3)c12` [compound 10, 7-(5-{2′,7-dimethyl-1H,2′H-[3,4′-biindazol]-1-yl}pyri-din-2-yl)-2,7-dia-zaspiro[3.5]nonan-1-one]: the EC50 came to 2.1 µM in data set [1]; 2.1 µM in data set [3]; 0.4 µM in data set [4]; 0.5 µM in data set [5]; 2.2 µM in data set [7]. This molecule also yielded a Papp A→B at 10 μM in data set [2] of 260 nm/s. Besides, the “thermal shift (ΔTm)” value in data set [6] amounted to 20 K.

`CC(=O)NC1C2CN(c3ccc(-n4nc(-c5cccc6nn(C)cc56)c5cccc(C)c54)cn3)CC21` (stereo not drawn) [compound 55, N-[3-(5-{2′,7-dimethyl-1H,2′H-[3,4′-biindazol]-1-yl}pyridin-2-yl)-3-azabicyclo[3.1.0]hexan-6-yl]acetamide]: the EC50 was 1.7 µM in data set [1]; 2.3 µM in data set [3]; 0.8 µM in data set [4]; 0.7 µM in data set [5]; 1.2 µM in data set [7]. In data set [2], this molecule yielded a Papp A→B at 10 μM of 210 nm/s. In data set [2], the efflux ratio at 10 μM is 1. In addition, the “thermal shift (ΔTm)” value in data set [6] is 20 K.

On to `Cc1cccc2c(-c3cccc4nn(C)cc34)nn(-c3ccc(N4CCC(S(C)(=O)=O)CC4)nc3)c12` [compound 18, 1-[6-(4-methanesulfonylpi-peridin-1-yl)pyridin-3-yl]-2′,7-dimethyl-1H,2′H-3,4′-biindazole], for which the half-maximal effective concentration (EC50) in data set [1] was 0.7 µM; in data set [3], 0.7 µM; in data set [4] it was 0.2 µM; in data set [5], 0.2 µM; in data set [7], 0.6 µM. In data set [2], this molecule yielded a Papp A→B at 10 μM of 360 nm/s. Besides, the efflux ratio at 10 μM in data set [2] stood at 0.3. Besides, in data set [6], the “thermal shift (ΔTm)” value came out at 22 K.

The EC50 is the concentration giving half of the maximal effect. As usually defined, the Papp A→B is the apparent permeability from the apical to the basolateral side of a cell layer. Read a high Papp A→B as ready permeation. One may read the efflux ratio as a quotient of directional permeabilities that is used to spot active efflux.
